In test [1] the target is T1, NEDD8-activating enzyme E1 regulatory subunit (Homo sapiens) (UniProt Q13564).
T1 sequence (whole entry): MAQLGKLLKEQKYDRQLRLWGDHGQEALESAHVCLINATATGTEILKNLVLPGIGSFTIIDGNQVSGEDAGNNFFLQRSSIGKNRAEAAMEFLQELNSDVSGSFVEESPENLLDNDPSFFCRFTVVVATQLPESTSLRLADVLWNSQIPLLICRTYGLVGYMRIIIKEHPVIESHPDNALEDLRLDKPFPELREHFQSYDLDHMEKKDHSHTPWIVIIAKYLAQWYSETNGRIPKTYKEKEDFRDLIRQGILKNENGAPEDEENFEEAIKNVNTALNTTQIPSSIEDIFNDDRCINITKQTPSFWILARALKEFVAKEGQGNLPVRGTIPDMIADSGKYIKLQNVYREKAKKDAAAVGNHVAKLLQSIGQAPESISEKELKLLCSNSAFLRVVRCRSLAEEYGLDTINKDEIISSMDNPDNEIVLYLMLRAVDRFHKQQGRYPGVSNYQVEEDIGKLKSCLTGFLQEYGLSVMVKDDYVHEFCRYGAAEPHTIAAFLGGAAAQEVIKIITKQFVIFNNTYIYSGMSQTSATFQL
Kind of test: Activation of NAE1 in human MGC-803 cells assessed as PARP cleavage at 1 to 3 uM measured after 48 hrs by western blot analysis. Format: cell-based. Particulars: filed as agonist, dose 1-3 µM. A general note: Immunoblotting shows a protein as a band on a membrane.

Test [2] addresses T1, NEDD8-activating enzyme E1 regulatory subunit (Homo sapiens). In words: Activation of NAE1-mediated protein degradation in human HGC-27 cells assessed as decrease in YAP/TAZ level at 9 uM measured after 48 hrs in presence of NEDDylation inhibitor, MLN4924 by western blot analysis. Format: cell-based.
Test [3] has as its system HGC-27. In words: Induction of cell morphological changes in human HGC-27 cells assessed as cell rounding at 1 to 9 uM measured after 48 hrs by bright field microscopic analysis. Format: functional, cell-based. Particulars: dose 1-9 µM.
Test [4] has as its target T1, NEDD8-activating enzyme E1 regulatory subunit (Homo sapiens). Kind of test: Activation of NAE1 (unknown origin) mediated neddylation assessed as Ubc12-NEDD8 level at 2 uM by western blot analysis. Particulars: filed as agonist.
In test [5] the test system is MGC-803. Kind of test: Induction of cell morphological changes in human MGC-803 cells assessed as increase in dead cells by measuring red fluorescence at 1 to 3 uM incubated for 48 hrs by calcein-AM/PI staining based fluorescence analysis. It counts as functional. The settings on record: dose 1-3 µM.
Test [6] relates to HGC-27. Kind of test: Induction of cell morphological changes in human HGC-27 cells assessed as reduction in cell density at 9 uM measured after 48 hrs in the presence of NEDDylation inhibitor, MLN4924 by calcein-AM/PI staining based fluorescence analysis. Format: functional.
For test [7], the target named is T1, NEDD8-activating enzyme E1 regulatory subunit (Homo sapiens). Kind of test: Activation of NAE1-mediated protein degradation in human MGC-803 cells assessed as decrease in c-IAPI level at 1 to 3 uM measured after 48 hrs by western blot analysis. Format: cell-based. The settings on record: filed as agonist, dose 1-3 µM.
Test [8] deals with MGC-803. Kind of test: Induction of cell morphological changes in human MGC-803 cells assessed as reduction in cell density at 3 uM measured after 48 hrs in the presence of NEDDylation inhibitor, MLN4924 by calcein-AM/PI staining based fluorescence analysis. Format: functional.
The subject of test [9] is HGC-27. In words: Inhibition of colony formation in human HGC-27 cells assessed as reduction in number of colonies at 0.4 to 2 uM incubated for 7 days by crystal violet staining based assay. Format: functional, cell-based. The settings on record: dose 0.4-2 µM, time 7.0 day.
The test system of test [10] is HGC-27. Kind of test: Antiproliferative activity against human HGC-27 cells assessed as reduction in cell viability measured every 60 mins for 48 hrs by xCELLigence based RTCA analysis. It counts as functional.
For test [11], the system named is MGC-803. In words: Induction of cell morphological changes in human MGC-803 cells at 3 uM measured after 48 hrs in the presence of NEDDylation inhibitor, MLN4924 by DAPI staining based fluorescence analysis. Format: functional.
The subject of test [12] is HGC-27. Kind of test: Induction of cell morphological changes in human HGC-27 cells at 9 uM measured after 48 hrs in the presence of NEDDylation inhibitor, MLN4924 by DAPI staining based fluorescence analysis. Format: functional.

The source made the active and inactive calls. No cut-off for these calls is given here.

For `COc1cc(-c2nc(NC(=O)CSC(=S)N3CCN(C(=O)OC(C)(C)C)CC3)nnc2-c2ccc(C)cc2)cc(OC)c1OC`, the outcome (in test [1]; in the test with HGC-27 [3]; in [4]; with MGC-803 [5]; in test [7]) was Active. The outcome (in [2]; in the test on HGC-27 [6]; with MGC-803 [8]; with MGC-803 [11]; with HGC-27 [12]) was inactive. Also, the inhibition result in the test with HGC-27 [9] is “Active”. Moreover, the Activity entry in the test on HGC-27 [10] is “Dose-Dependent Effect”.

These data come from ChEMBL document CHEMBL4828752, “Discovery of 1,2,4-triazine dithiocarbamate derivatives as NEDDylation agonists to inhibit gastric cancers” (Eur J Med Chem, 2021).
